Read-outs that look alike come from different tables or passages of the source. Blank lines part the entries; values can stand above or below the compound they belong to.
Key:
dopamine D1 receptors = dopamine D1 receptors (Homo sapiens, UniProt P21728); test: Dopamine D1 receptor binding; conditions: data not shown
[1] = target: T1, human D3 dopamine receptor (D3R) (Homo sapiens, UniProt P35462); type: binding; conditions: for decrease of D3R binding affinity on replacing the amide by the amine linker: amine analogue vs corresponding amide (13b vs 19; 15b vs 8j); for D2/D3: ratio of Ki values
hD3 (D3R) = hD3 (D3R) (Homo sapiens, UniProt P35462); test: Quinpirole-induced mitogenesis assay in hD3-transfected CHOp cells; type: cell-based
[2] = target: human D2L dopamine receptor (D2R) (Homo sapiens, UniProt P14416); type: binding; conditions: for Ki: read-out: D2R Ki ± S.E.M., Table 2, HEK 293 hD2LR, 125I-IABN
[3] = target: T1, human D3 dopamine receptor (D3R); conditions: Table 2; previously reported, ref [6]; cited from earlier work

dopamine D1 receptors, sequence (P21728 whole entry): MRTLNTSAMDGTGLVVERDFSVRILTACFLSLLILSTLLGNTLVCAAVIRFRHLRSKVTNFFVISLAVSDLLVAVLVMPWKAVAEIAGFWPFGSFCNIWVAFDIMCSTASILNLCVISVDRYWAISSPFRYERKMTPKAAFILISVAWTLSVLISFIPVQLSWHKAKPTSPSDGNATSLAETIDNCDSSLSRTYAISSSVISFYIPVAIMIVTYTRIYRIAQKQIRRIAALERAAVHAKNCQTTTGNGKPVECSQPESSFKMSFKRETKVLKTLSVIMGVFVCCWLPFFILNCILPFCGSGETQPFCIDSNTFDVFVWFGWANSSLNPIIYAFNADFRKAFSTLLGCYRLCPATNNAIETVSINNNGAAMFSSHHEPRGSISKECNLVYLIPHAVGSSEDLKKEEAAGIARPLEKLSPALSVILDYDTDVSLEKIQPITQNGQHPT
human D2L dopamine receptor (D2R), sequence (P14416 whole entry): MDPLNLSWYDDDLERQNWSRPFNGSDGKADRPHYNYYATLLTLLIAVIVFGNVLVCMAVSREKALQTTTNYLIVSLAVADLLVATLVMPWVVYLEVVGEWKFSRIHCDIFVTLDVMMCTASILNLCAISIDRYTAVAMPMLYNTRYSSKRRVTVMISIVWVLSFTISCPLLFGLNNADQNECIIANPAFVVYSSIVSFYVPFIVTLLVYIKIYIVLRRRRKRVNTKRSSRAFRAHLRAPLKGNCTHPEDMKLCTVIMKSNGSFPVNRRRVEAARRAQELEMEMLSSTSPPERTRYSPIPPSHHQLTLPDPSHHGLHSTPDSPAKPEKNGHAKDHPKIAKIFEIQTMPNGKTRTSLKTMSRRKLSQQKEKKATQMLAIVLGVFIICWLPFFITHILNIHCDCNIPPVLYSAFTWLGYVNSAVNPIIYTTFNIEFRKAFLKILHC
T1 sequence (P35462 whole entry): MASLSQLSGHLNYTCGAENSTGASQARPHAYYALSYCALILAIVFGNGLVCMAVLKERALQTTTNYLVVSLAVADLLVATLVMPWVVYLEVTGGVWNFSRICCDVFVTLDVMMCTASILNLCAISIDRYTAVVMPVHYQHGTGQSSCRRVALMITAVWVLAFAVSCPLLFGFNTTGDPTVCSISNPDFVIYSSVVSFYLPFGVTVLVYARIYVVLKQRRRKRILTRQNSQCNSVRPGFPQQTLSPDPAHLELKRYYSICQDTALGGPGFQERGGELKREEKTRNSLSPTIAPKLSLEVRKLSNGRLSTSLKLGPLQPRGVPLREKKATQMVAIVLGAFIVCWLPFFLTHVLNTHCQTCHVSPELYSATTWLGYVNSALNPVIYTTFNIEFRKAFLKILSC
hD3 (D3R), sequence (P35462 whole entry): as above

- decrease of D3R binding affinity on replacing the amide by the amine linker [1]: 150 fold
- D2R binding affinity increased on replacing the amide by the amine linker ([2]; 15b vs amide 8j): ~ 2 fold
Compound: CN(CCC(F)CN1CCN(c2cccc(Cl)c2Cl)CC1)Cc1ccc2c(c1)Cc1ccccc1-2 (centres unmarked) [Compound 15b, N-((9H-Fluoren-2-yl)methyl)-4-(4-(2,3-dichlorophenyl)piperazin-1-yl)-3-fluoro-N-methylbutan-1-amine]

- D3R-selectivity over D2R [1]: 2 fold
- D2/D3 ([1]; Table 2): 2
- decrease of D3R binding affinity on replacing the amide by the amine linker [1]: 126 fold
- D2R binding affinity reduced on replacing the amide by the amine linker ([2]; 13b vs amide 19): 2.5 fold
- Ki [2]: 162 ± 1.2 nM
Compound: N-(Benzo[b]thiophen-2-ylmethyl)-4-(4-(2,3-dichlorophenyl)piperazin-1-yl)-N-propylbutan-1-amine [Compound 13b]

- D2/D3 ([1]; Table 2): 1
- Ki ([1]; read-out: D3R Ki ± S.E.M., Table 2, HEK 293 hD3R, 125I-IABN): 67.9 ± 2.4 nM
- Ki [2]: 69.9 ± 7.3 nM
Compound: N-(Benzo[b]thiophen-2-ylmethyl)-4-(4-(2-methoxyphenyl)piperazin-1-yl)-N-propylbutan-1-amine [Compound 13a]

Second part, the compound before the results:

Compound: O=C(NCCC(F)CN1CCN(c2cccc(Cl)c2Cl)CC1)c1cc2ccccc2o1 (centres unmarked) [Compound 8d, N-(4-(4-(2,3-Dichlorophenyl)piperazin-1-yl)-3-fluorobutyl)benzofuran-2-carboxamide]
- binding at dopamine D1 receptors (dopamine D1 receptors): selectivity over D1

Compound: O=C(NCCC(F)CN1CCN(c2cccc(Cl)c2Cl)CC1)c1cc2ccccc2[nH]1 (centres unmarked) [Compound 8h, N-(4-(4-(2,3-Dichlorophenyl)piperazin-1-yl)-3-fluorobutyl)-1H-indole-2-carboxamide]
- D3R-selectivity over D2R [1]: > 130 fold

Compound: COc1ccccc1N1CCN(CC(F)CCNC(=O)c2ccc3c(c2)Cc2ccccc2-3)CC1 (centres unmarked) [Compound 8i, N-(3-Fluoro-4-(4-(2-methoxyphenyl)piperazin-1-yl)butyl)-9H-fluorene-2-carboxamide]
- binding at dopamine D1 receptors (dopamine D1 receptors): selectivity over D1

Compound: O=C(NCCC(F)CN1CCN(c2cccc(Cl)c2Cl)CC1)c1ccc2c(c1)Cc1ccccc1-2 (centres unmarked) [Compound 8j, N-(4-(4-(2,3-Dichlorophenyl)piperazin-1-yl)-3-fluorobutyl)-9H-fluorene-2-carboxamide]
- D3R-selectivity over D2R [1]: > 1000 fold
- binding at dopamine D1 receptors (dopamine D1 receptors): selectivity over D1

Compound: COc1ccccc1N1CCN(CC(F)CCNC(=O)c2cc3ccccc3s2)CC1 (centres unmarked) [Compound 8k, N-(3-Fluoro-4-(4-(2-methoxyphenyl)piperazin-1-yl)butyl)benzo[b]thiophene-2-carboxamide]
- D3R-selectivity over D2R [1]: > 60 fold

Compound: O=C(NCCC(F)CN1CCN(c2cccc(Cl)c2Cl)CC1)c1cc2ccccc2s1 (centres unmarked) [Compound 8l, N-(4-(4-(2,3-Dichlorophenyl)piperazin-1-yl)-3-fluorobutyl)benzo[b]thiophene-2-carboxamide]
- D3R-selectivity over D2R [1]: > 130 fold

Compound: COc1ccc2[nH]c(C(=O)NCCC(F)CN3CCN(c4ccccc4OC)CC3)cc2c1 (centres unmarked) [Compound 8m, N-(3-Fluoro-4-(4-(2-methoxyphenyl)piperazin-1-yl)butyl)-5-methoxy-1H-indole-2-carboxamide]
- D3R-selectivity over D2R [1]: > 60 fold

Compound: COc1ccc2[nH]c(C(=O)NCCC(F)CN3CCN(c4cccc(Cl)c4Cl)CC3)cc2c1 (centres unmarked) [Compound 8n, N-(4-(4-(2,3-Dichlorophenyl)piperazin-1-yl)-3-fluorobutyl)-5-methoxy-1H-indole-2-carboxamide]
- EC50 (hD3 (D3R)): 4.9 nM
- functional profile in the D3R mitogenesis assay (hD3 (D3R)): more potent partial agonist than an antagonist
- D3 mitogenesis % stimulation (hD3 (D3R); agonist mode, value in parentheses): 14.9%
- D3R-selectivity over D2R [1]: > 130 fold

Compound: COc1ccccc1N1CCN(CCCCNC(=O)c2ccc3c(c2)Cc2ccccc2-3)CC1 [Compound 18, N-(4-(4-(2-methoxyphenyl)piperazin-1-yl)butyl)-9H-fluorene-2-carboxamide]
- D2/D3 [3]: 185

Source: publication PMC3100590 (Journal of medicinal chemistry, 2011)
